Experimental findings from patent US20250074919A1, “Heteroaryl compounds as inhibitors of irak4, compositions and applications thereof” (Accro Bioscience (HK) Limited, priority 2021, published 2025) are described below.

Molecules are shown by their SMILES.

In data set [1] the target is T1, IRAK4 (Homo sapiens (Human), UniProt Q9NWZ3). The experiment in a line: Screening the compounds against IRAK4 with ATP (Caliper, FAM-labeled peptide). Type of data set: biochemical. Particulars: for IC50: read-out: IC50 (nM) (10 μM ATP), IRAK4 kinase, 10 μM ATP. Put shortly: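 Enzyme preincubated with compound 10 min at room temperature in 50 mM HEPES pH 7.5, 0.0015% Brij-35; reaction started with FAM-labeled peptide and ATP at 28° C, stopped with EDTA.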

Data set [2] in a line: Metabolic stability in human liver microsomes. The following applies: for half-life: NADPH, 37° C., read-out: Human microsome (t1/2). It is filed as in vitro ADME. The procedure: (§1) The appropriate concentrations of microsomes working solutions (0.56 mg/mL) were prepared in potassium phosphate buffer. The test compounds were incubated with Human, SD Rat, CD-1 Mouse and Beagle Dog liver microsomes for 10 min at 37° C. with constant shaking. The reaction was initiated by the addition of nicotinamide adenine dinucleotide phosphate (NADPH) cofactor after a 10 min pre-incubation. At 5, 15, 30, 45, and 60 min, the samples were taken and placed into the stop solution (Cold acetonitrile containing 200 ng/mL tolbutamide and 200 ng/mL labetalol as internal standards). All sampling plates were shaken for 10 min, then centrifuged at 4000 rpm for 20 minutes at 4° C. Each supernatant of bioanalysis plate was sealed and shaken for 10 minutes prior to LC-MS analysis.
In general terms: Microsomes from liver hold many membrane-bound enzymes, among them those of drug oxidation.

The nature of data set [3]: Metabolic stability in dog liver microsomes. It is filed as in vitro ADME, Beagle Dog. Particulars: for half-life: Beagle dog liver microsomes, NADPH, 37° C., read-out: Dog microsome (t1/2). The procedure:
as §1

Data set [4] is described as follows: Metabolic stability in rat liver microsomes. Type of data set: in vitro ADME, SD Rat. The following applies: for half-life: SD rat liver microsomes, NADPH, 37° C., read-out: Rat microsome (t1/2). The procedure:
as §1

Data set [5] addresses T1, IRAK4. Nature of the data set: Kinase binding ability (KINOMEscan site-directed competition binding assay). Particulars: for Kd: Kd between IRAK4 and compound. Here is the method: The Equilibrium dissociation constant reflected the test compound's kinase binding (Kd). The KINOMEscan, a site-directed competition binding assay, was used to measure interactions between test compounds and specific kinases. The kinase-tagged T7 phage strains were derived from the BL21 strain's E. coli host. T7 phage was used to infect E. coli, which was then incubated until lysis occurred. The remaining kinases were produced in HEK-293 cells and tagged with DNA. To create affinity resins for kinase, streptavidin-coated magnetic beads were treated with biotinylated small molecule ligands. The assay consists of three components: a DNA-tagged kinase, an immobilized ligand, and the test compound. An immobilized ligand could compete with the compound binding the kinase active site. The affinity beads were washed with wash buffer and re-suspended in elution buffer following reactions in a polypropylene 384-well plate. qPCR of the kinase-DNA tag was used to assess the test compound's ability to bind with the selected kinase. The assay was carried out in accordance with the manufacturer's instructions (Eurofins DiscoverX Corporation).
Binding constants (Kd) were calculated with a standard dose-response curve using the Hill equation: […]

The nature of data set [6]: Metabolic stability in mouse liver microsomes. The following applies: for half-life: CD-1 mouse liver microsomes, NADPH, 37° C., read-out: Mouse microsome (t1/2). It is filed as in vitro ADME, CD-1 Mouse. The procedure:
as §1

Data set [7] in a line: Pharmacokinetics study in ICR mice. Type of data set: in vivo. The following applies: for clearance rate (in words) / half-life (in words) / oral absorption (in words) / oral exposure and bioavailability (in words): mice; for clearance rate (in words) / half-life (in words): administered intravenously; for oral absorption (in words) / oral exposure and bioavailability (in words): oral administration; for Vd / clearance / half-life / AUC / bioavailability / Cmax / Tmax: mouse, plasma, male ICR mice; for AUC: zero to 24 hours; for bioavailability: oral, p.o.: 10 mg/kg vs i.v.: 2 mg/kg. The procedure: Solution used:10% DMSO+10% Solutol+80% (20% Hp-β-CD)
Single dose pharmacokinetic parameters were determined at Medicilon using male ICR mice (3 […] per group, 2 groups). Groups were dosed i.v. (2 mg/kg) or p.o. (10 mg/kg) and blood samples were taken via submandibular or saphenous vein at the following time points post dosing: 0.083 (i.v. only), 0.25, 0.5, 1, 2, 4, 6 (p.o. only), 8 and 24 h. An aliquot of 50 μL of blood plasma was protein precipitated with 250 μL internal standard solution (200 ng/mL tolbutamide in MeOH), the mixture was vortex-mixed for 1 min and centrifuged at 14,000 rpm for 5 min. The concentration of the test compound in the plasma samples was determined using LC-MS/MS with the peak areas compared to a calibration curve determined using 5-5000 ng/mL test compound in ICR mice plasma. […] Cmax represents peak plasma concentration of the drug; Tmax represents the time to reach Cmax; T1/2 represents elimination half-life or the time taken for Cmax to drop in half; Cl represents clearance; Vd represents apparent volume of distribution; F represents bioavailability; p.o. represents oral administration; and i.v. represents intravenous injection.

Usually IC50 stands for the concentration that inhibits the measured activity by half. In general, Kd refers to the equilibrium constant for the complex coming apart. Read a high Kd as lower affinity. As a reminder, the Vd is the apparent volume that relates the amount in the body to the concentration in plasma or blood. Read a low Vd as confinement near the circulation. For orientation: clearance means a measure of how efficiently the substance is removed, as volume per time. In general, AUC refers to the area under the concentration-time curve, a measure of exposure. As a reminder, the Cmax is the highest concentration seen after dosing. As usually defined, the Tmax is the time at which the peak concentration occurs.

T1 sequence (Q9NWZ3 whole entry): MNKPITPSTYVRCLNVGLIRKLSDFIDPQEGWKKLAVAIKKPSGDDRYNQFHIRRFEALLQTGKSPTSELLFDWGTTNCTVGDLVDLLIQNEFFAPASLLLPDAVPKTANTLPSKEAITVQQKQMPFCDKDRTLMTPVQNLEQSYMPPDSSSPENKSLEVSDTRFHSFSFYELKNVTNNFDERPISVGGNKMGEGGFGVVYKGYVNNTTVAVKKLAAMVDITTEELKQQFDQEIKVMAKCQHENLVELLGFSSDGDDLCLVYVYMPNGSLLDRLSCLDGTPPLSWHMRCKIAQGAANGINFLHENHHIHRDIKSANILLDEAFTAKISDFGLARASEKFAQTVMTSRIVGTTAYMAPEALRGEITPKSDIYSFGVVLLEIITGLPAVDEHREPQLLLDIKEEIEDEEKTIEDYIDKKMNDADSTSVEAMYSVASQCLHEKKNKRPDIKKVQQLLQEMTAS

Consider `Cn1cc(-c2cccc(NC(=O)c3cc4oc(N5CCOCC5)nc4nc3N3CC[C@@H](O)C3)n2)cn1` [Compound A1, (R)-5-(3-hydroxypyrrolidin-1-yl)-N-(6-(1-methyl-1H-pyrazol-4-yl)pyridin-2-yl)-2-morpholinooxazolo[4,5-b]pyridine-6-carboxamide], for which the IC50 on IRAK4 [1] was determined as 405 nM. In data set [2], the “metabolic stability in liver microsomes of human (in words)” value (from here on “metabolic stability … of human (in words)”) was “good metabolic stability” and the half-life is greater than 2.42 h. Moreover, in data set [3], the half-life is greater than 2.42 h and the “metabolic stability in liver microsomes of dog (in words)” value (from here on “metabolic stability … of dog (in words)”) is reported as “good metabolic stability”. In addition, in data set [4], the half-life was greater than 2.42 h and the “metabolic stability in liver microsomes of rat (in words)” value (“metabolic stability … of rat (in words)” below) was “good metabolic stability”. Besides, on IRAK4 [5], the “binding affinities to IRAK4 (in words)” value is “high binding affinities” and binding was characterised by a dissociation constant (Kd) of 29 nM. Besides, in data set [6], the half-life was greater than 2.42 h and the “metabolic stability in liver microsomes of mouse (in words)” value (shortened to “metabolic stability … of mouse (in words)”) was “good metabolic stability”.
In the case of `Cn1cc(-c2cccc(NC(=O)c3cc4oc(N5CCOCC5)nc4nc3N3CCC(O)CC3)n2)cn1` [Compound A4, 5-(4-hydroxypiperidin-1-yl)-N-(6-(1-methyl-1H-pyrazol-4-yl)pyridin-2-yl)-2-morpholinooxazolo[4,5-b]pyridine-6-carboxamide], on IRAK4 [1] (IRAK4 kinase inhibition relative to CA4948), the “activity, times better than that of the positive control compound CA4948” value is reported as “more than 10 times”. Also, the IC50 on IRAK4 [1] came to 11 nM. Further, in data set [7], the “clearance rate (in words)” value was “low clearance rate”; the “half-life (in words)” value is given as “good half-life”; the “oral absorption (in words)” value is on record as “well absorbed orally”; the “oral exposure and bioavailability (in words)” value is “extremely high oral exposure and bioavailability”. For the same compound, the bioavailability in data set [7] is 130%. In data set [7] (iv, i.v.: 2 mg/kg), the Vd worked out at 0.98 L/kg, the clearance turned out to be 0.486 L/h/kg, the half-life is 1.4 h and the AUC came out at 4.05 µg·h/mL. In data set [7] (po, p.o.: 10 mg/kg), the Cmax worked out at 8.58 µg/mL, the Tmax turned out to be 1.17 h and the AUC was 26.4 µg·h/mL. Moreover, in data set [2], the “metabolic stability … of human (in words)” value was “good metabolic stability” and the half-life was greater than 2.42 h. In addition, in data set [3], the half-life came to 1.7 h and the “metabolic stability … of dog (in words)” value is “good metabolic stability”. In data set [4], the half-life was 1.53 h and the “metabolic stability … of rat (in words)” value is “good metabolic stability”. Moreover, at IRAK4 [5], the “binding affinities to IRAK4 (in words)” value is given as “high binding affinities” and binding was characterised by a dissociation constant (Kd) of 0.59 nM. Besides, in data set [6], the half-life is greater than 2.42 h and the “metabolic stability … of mouse (in words)” value is “good metabolic stability”.
Consider `Cn1cc(-c2cccc(NC(=O)c3cc4c(nc3N3CCC(O)CC3)OC(C)(C)C4)n2)cn1` [Compound B5, 6-(4-Hydroxypiperidin-1-yl)-2,2-dimethyl-N-(6-(1-methyl-1H-pyrazol-4-yl)pyridin-2-yl)-2,3-dihydrofuro[2,3-b]pyridine-5-carboxamide], for which the IC50 at IRAK4 [1] turned out to be 7.6 nM. Further, in data set [7], the “clearance rate (in words)” value is “low clearance rate”; the “half-life (in words)” value is recorded as “good half-life”; the “oral absorption (in words)” value is given as “well absorbed orally”; the “oral exposure and bioavailability (in words)” value was “extremely high oral exposure and bioavailability”. In addition, the bioavailability in data set [7] amounted to 91%. In data set [7] (iv, i.v.: 2 mg/kg), the distribution volume (Vd) was 3.6 L/kg, the clearance turned out to be 0.816 L/h/kg, the half-life is 3.1 h and the AUC came out at 2.45 µg·h/mL. Also, in data set [7] (po, p.o.: 10 mg/kg), the highest level (Cmax) was 1.46 µg/mL, the Tmax is 2 h and the exposure (AUC) was determined as 9.99 µg·h/mL. Moreover, in data set [2], the “metabolic stability … of human (in words)” value is reported as “good metabolic stability” and the half-life is greater than 2.42 h. For the same compound, in data set [3], the half-life was greater than 2.42 h and the “metabolic stability … of dog (in words)” value is “good metabolic stability”. In data set [4], the half-life is greater than 2.42 h and the “metabolic stability … of rat (in words)” value is given as “good metabolic stability”. For the same compound, at IRAK4 [5], the “binding affinities to IRAK4 (in words)” value is “high binding affinities” and binding was put at a Kd of 0.69 nM. Further, in data set [6], the half-life came out at 1.18 h and the “metabolic stability … of mouse (in words)” value is “moderate metabolic stability”.
